The target of one experiment is Acetylcholinesterase (Homo sapiens, UniProt P22303). Kind of experiment: AChE and BuChE Inhibition Assay. Conditions: pH 8. The method, then:
(§1) The reaction mixture was consisted of 100 µL of the total volume.

The target of another experiment is Cholinesterase (Homo sapiens, UniProt P06276). Kind of experiment: AChE and BuChE Inhibition Assay. Particulars: pH 8. How it is done: as §1

We go through 15 compounds from BindingDB's records for doi:10.1016/j.bioorg.2016.07.013 (Shenyang Pharmaceutical University, 2016).

The term IC50 denotes the midpoint of a concentration-inhibition curve. Lower therefore signals greater potency.

Cholinesterase, sequence (P06276 whole entry): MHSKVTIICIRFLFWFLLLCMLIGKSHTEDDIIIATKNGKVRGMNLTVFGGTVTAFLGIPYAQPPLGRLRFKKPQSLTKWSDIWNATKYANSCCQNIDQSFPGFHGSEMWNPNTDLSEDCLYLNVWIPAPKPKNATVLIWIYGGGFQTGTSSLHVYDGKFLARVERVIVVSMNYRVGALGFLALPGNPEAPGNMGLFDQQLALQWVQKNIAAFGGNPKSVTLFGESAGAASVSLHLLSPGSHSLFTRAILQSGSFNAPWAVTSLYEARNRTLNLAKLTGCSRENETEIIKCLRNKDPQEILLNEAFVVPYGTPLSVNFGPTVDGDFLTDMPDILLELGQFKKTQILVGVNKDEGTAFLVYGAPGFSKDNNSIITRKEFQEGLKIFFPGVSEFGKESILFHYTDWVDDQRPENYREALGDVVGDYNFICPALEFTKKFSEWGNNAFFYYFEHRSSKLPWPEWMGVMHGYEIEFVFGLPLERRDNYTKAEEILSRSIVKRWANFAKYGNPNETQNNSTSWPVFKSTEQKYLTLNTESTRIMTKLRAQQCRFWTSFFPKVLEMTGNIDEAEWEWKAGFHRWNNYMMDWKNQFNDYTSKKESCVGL
Acetylcholinesterase, sequence (P22303 whole entry): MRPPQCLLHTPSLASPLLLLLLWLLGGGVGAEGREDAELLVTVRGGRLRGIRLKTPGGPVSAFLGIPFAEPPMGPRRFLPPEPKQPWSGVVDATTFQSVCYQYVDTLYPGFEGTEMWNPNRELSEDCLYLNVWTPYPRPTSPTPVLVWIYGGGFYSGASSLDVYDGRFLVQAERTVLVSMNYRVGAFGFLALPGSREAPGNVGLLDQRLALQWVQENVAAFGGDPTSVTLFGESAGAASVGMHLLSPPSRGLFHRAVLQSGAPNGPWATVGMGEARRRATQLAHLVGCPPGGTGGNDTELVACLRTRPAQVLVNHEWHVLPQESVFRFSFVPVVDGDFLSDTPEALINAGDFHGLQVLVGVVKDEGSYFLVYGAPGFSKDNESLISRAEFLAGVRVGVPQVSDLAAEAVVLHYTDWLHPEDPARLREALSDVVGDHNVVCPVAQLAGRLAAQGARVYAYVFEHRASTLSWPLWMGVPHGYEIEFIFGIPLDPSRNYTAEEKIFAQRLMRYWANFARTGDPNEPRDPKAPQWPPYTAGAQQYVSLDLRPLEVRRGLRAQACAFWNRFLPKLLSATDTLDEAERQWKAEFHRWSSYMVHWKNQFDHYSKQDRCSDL

Consider `CN1CCN(Cc2ccc(NC(=O)c3cc4ccccc4oc3=O)cc2C(F)(F)F)CC1` [N-(4-((4-methylpiperazin-1-yl)methyl)-3-(trifluoromethyl)phenyl)-2-oxo-2H-chromene-3-carboxamide (9o)], for which 0.618 µM corresponded to half-maximal inhibition on Acetylcholinesterase (IC50).
`CCN1CCN(Cc2ccc(NC(=O)c3cc4cc([N+](=O)[O-])ccc4oc3=O)cc2Cl)CC1` [N-(3-chloro-4-((4-ethylpiperazin-1-yl)methyl)phenyl)-6-nitro-2-oxo-2H-chromene-3-carboxamide (9x)] had an IC50 against Acetylcholinesterase of 0.034 µM.
On to `CN1CCN(Cc2ccc(NC(=O)c3cc4cc(Cl)ccc4oc3=O)cc2Cl)CC1` [6-Chloro-N-(3-chloro-4-((4-methylpiperazin-1-yl)methyl)phenyl)-2-oxo-2H-chromene-3-carboxamide (9q)], for which the IC50 against Acetylcholinesterase was 0.841 µM; on Cholinesterase, 1.79 µM.
`COc1cccc2cc(C(=O)Nc3ccc(CN4CCN(C)CC4)c(C(F)(F)F)c3)c(=O)oc12` [8-Methoxy-N-(4-((4-methylpiperazin-1-yl)methyl)-3-(trifluoromethyl)phenyl)-2-oxo-2H-chromene-3-carboxamide (9d)] came in with an IC50 on Acetylcholinesterase of 1.45 µM. This counts as single-digit micromolar.
As to `CCN1CCN(Cc2ccc(NC(=O)c3cc4ccccc4oc3=O)cc2Cl)CC1` [N-(3-chloro-4-((4-ethylpiperazin-1-yl)methyl)phenyl)-2-oxo-2H-chromene-3-carboxamide (9l)], the IC50 on Acetylcholinesterase worked out at 1.3 µM; at Cholinesterase, 1.59 µM.
The matching figures for `CN1CCN(Cc2ccc(NC(=O)c3cc4cc(Br)ccc4oc3=O)cc2Cl)CC1` [6-Bromo-N-(3-chloro-4-((4-methylpiperazin-1-yl)methyl)phenyl)-2-oxo-2H-chromene-3-carboxamide (9u)]: 0.33 µM and 1.89 µM.
In the same order, the values of `COc1cccc2cc(C(=O)Nc3ccc(CN4CCN(C)CC4)c(Cl)c3)c(=O)oc12` [N-(3-chloro-4-((4-methylpiperazin-1-yl)methyl)phenyl)-8-methoxy-2-oxo-2H-chromene-3-carboxamide (9b)] are 1.22 µM and 1.77 µM.
In the same order, the values of `CN1CCN(Cc2ccc(NC(=O)c3cc4cc([N+](=O)[O-])ccc4oc3=O)cc2Cl)CC1` [N-(3-chloro-4-((4-methylpiperazin-1-yl)methyl)phenyl)-6-nitro-2-oxo-2H-chromene-3-carboxamide (9y)] are 0.807 µM and 1.88 µM.
In the case of `CN1CCN(Cc2ccc(NC(=O)c3cc4ccccc4oc3=O)cc2Cl)CC1` [N-(3-chloro-4-((4-methylpiperazin-1-yl)methyl)phenyl)-2-oxo-2H-chromene-3-carboxamide (9k)], the IC50 is 1.3 µM against Acetylcholinesterase and 1.97 µM on Cholinesterase.
In turn, `CCN1CCN(Cc2ccc(NC(=O)c3cc4ccc(OC)cc4oc3=O)cc2Cl)CC1` [N-(3-chloro-4-((4-ethylpiperazin-1-yl)methyl)phenyl)-7-methoxy-2-oxo-2H-chromene-3-carboxamide (9f)] came in with an IC50 on Acetylcholinesterase of 0.122 µM. This counts as sub-micromolar.
Same read-out and setting: next, `CCN1CCN(Cc2ccc(NC(=O)c3cc4cccc(OC)c4oc3=O)cc2Cl)CC1` [N-(3-chloro-4-((4-ethylpiperazin-1-yl)methyl)phenyl)-8-methoxy-2-oxo-2H-chromene-3-carboxamide (9a)]: 0.195 µM; `CCN1CCN(Cc2ccc(NC(=O)c3cc4cc(Br)ccc4oc3=O)cc2Cl)CC1` [6-Bromo-N-(3-chloro-4-((4-ethylpiperazin-1-yl)methyl)phenyl)-2-oxo-2H-chromene-3-carboxamide (9t)]: 0.12 µM; `COc1ccc2cc(C(=O)Nc3ccc(CN4CCN(C)CC4)c(C(F)(F)F)c3)c(=O)oc2c1` [7-Methoxy-N-(4-((4-methylpiperazin-1-yl)methyl)-3-(trifluoromethyl)phenyl)-2-oxo-2H-chromene-3-carboxamide (9j)]: 0.591 µM.
Turning to `COc1ccc2cc(C(=O)Nc3ccc(CN4CCN(C)CC4)c(Cl)c3)c(=O)oc2c1` [N-(3-chloro-4-((4-methylpiperazin-1-yl)methyl)phenyl)-7-methoxy-2-oxo-2H-chromene-3-carboxamide (9g)], the figures for the IC50 against Acetylcholinesterase and against Cholinesterase were 1.54 µM and 1.68 µM, respectively.
With `CCN1CCN(Cc2ccc(NC(=O)c3cc4cc(Cl)ccc4oc3=O)cc2Cl)CC1` [6-Chloro-N-(3-chloro-4-((4-ethylpiperazin-1-yl)methyl)phenyl)-2-oxo-2H-chromene-3-carboxamide (9p)], 0.222 µM corresponded to half-maximal inhibition against Acetylcholinesterase (IC50). In other words, the sub-micromolar range.
